Measurements from ChEMBL document CHEMBL1201862, “PubChem BioAssay data set” (2004).
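Each compound was tested at five concentrations against cells in 96-well plates for 48 hours. GI50 marks 50% less growth.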 The source made the active and inactive calls. Rule as the data show it: active = GI50 up to about 1.1 µM and inactive = higher.

Legend:
Assay in all cases: NCI-60 cell line screen, 48 h
CCRF-CEM = test system: CCRF-CEM
NCI-H226 = test system: NCI-H226
ACHN = test system: ACHN
LXFL 529 = test system: LXFL 529
MOLT-4 = test system: MOLT-4
NCI-H522 = test system: NCI-H522
NCI-H460 = test system: NCI-H460
COLO 205 = test system: COLO 205
KM12 = test system: KM12
OVCAR-8 = test system: OVCAR-8
OVCAR-3 = test system: OVCAR-3
DMS-114 = test system: DMS-114
HCT-15 = test system: HCT-15
M19-MEL = test system: M19-MEL
SNB-75 = test system: SNB-75
HOP-92 = test system: HOP-92
SW-620 = test system: SW-620
SF-295 = test system: SF-295
HL-60 = test system: HL-60
HOP-18 = test system: HOP-18
K562 = test system: K562
HT-29 = test system: HT-29
NCI-H23 = test system: NCI-H23
A498 = test system: A498
OVCAR-5 = test system: OVCAR-5
UO-31 = test system: UO-31
UACC-257 = test system: UACC-257
XF498 = test system: XF498
M14 = test system: M14
SK-MEL-2 = test system: SK-MEL-2
Malme-3M = test system: Malme-3M
DLD-1 = test system: DLD-1
786-0 = test system: 786-0
SF-268 = test system: SF-268
OVCAR-4 = test system: OVCAR-4
SK-MEL-5 = test system: SK-MEL-5
HCT-116 = test system: HCT-116
SF-539 = test system: SF-539
A549 = test system: A549
IGROV-1 = test system: IGROV-1
RXF 393 = test system: RXF 393
RPMI-8226 = test system: RPMI-8226
U-251 = test system: U-251
HOP-62 = test system: HOP-62
UACC-62 = test system: UACC-62
SK-MEL-28 = test system: SK-MEL-28
SK-OV-3 = test system: SK-OV-3
EKVX = test system: EKVX
HCC 2998 = test system: HCC 2998
CAKI-1 = test system: CAKI-1
TK-10 = test system: TK-10
SNB-78 = test system: SNB-78
DMS-273 = test system: DMS-273
LOX IMVI = test system: LOX IMVI
KM-20L2 = test system: KM-20L2
SNB-19 = test system: SNB-19
SN12C = test system: SN12C

Measured: GI50

COc1cc2c(cc1O)[C@H](C)C(c1ccc(OC)c(OC)c1)O2 (stereo partly specified)
inactive: CCRF-CEM 6.21 µM | NCI-H226 12.4 µM | ACHN 10.6 µM | LXFL 529 9.35 µM | MOLT-4 6.41 µM | NCI-H522 9.23 µM | NCI-H460 2.13 µM | COLO 205 20.4 µM | KM12 16.7 µM | OVCAR-8 13.2 µM | OVCAR-3 5.66 µM | DMS-114 3.56 µM | M19-MEL 4.18 µM | SNB-75 1.95 µM | HOP-92 10.4 µM | SW-620 4.2 µM | SF-295 6.56 µM | HL-60 3.41 µM | HOP-18 4.36 µM | K562 2.98 µM | HT-29 18 µM | NCI-H23 10.6 µM | A498 22.6 µM | OVCAR-5 45.6 µM | UO-31 5.69 µM | UACC-257 10.9 µM | XF498 10.1 µM | M14 4.68 µM | SK-MEL-2 3.1 µM | Malme-3M 10.3 µM | DLD-1 8.11 µM | 786-0 11.3 µM | SF-268 44.4 µM | OVCAR-4 13 µM | SK-MEL-5 6.01 µM | HCT-116 3.6 µM | SF-539 4.85 µM | A549 7.24 µM | IGROV-1 2.04 µM | RXF 393 11.7 µM | RPMI-8226 8.2 µM | U-251 5.87 µM | HOP-62 9.46 µM | UACC-62 3.09 µM | SK-MEL-28 9.75 µM | SK-OV-3 9.48 µM | EKVX 17.5 µM | HCC 2998 7.6 µM | CAKI-1 3.67 µM | TK-10 15.7 µM | SNB-78 17.3 µM | DMS-273 3.84 µM | LOX IMVI 4.13 µM | KM-20L2 18.8 µM | SNB-19 1.68 µM
3.08 µM: HCT-15

Cc1nnc2n1N=C(c1ccccc1)C(c1ccccc1)S2 (stereo unspecified)
26.2 µM: HCT-15
inactive: CCRF-CEM 19.3 µM | ACHN 33.2 µM | LXFL 529 29.4 µM | MOLT-4 34.1 µM | NCI-H522 24.6 µM | NCI-H460 34.6 µM | COLO 205 21.3 µM | KM12 42.1 µM | OVCAR-8 39.4 µM | OVCAR-3 36.9 µM | DMS-114 25.5 µM | M19-MEL 43.8 µM | SNB-75 17.8 µM | HOP-92 60.4 µM | SW-620 11.2 µM | SF-295 62.4 µM | HL-60 24.5 µM | HOP-18 60.7 µM | K562 31.8 µM | HT-29 34.8 µM | SN12C 59.6 µM | NCI-H23 24.3 µM | A498 64 µM | OVCAR-5 > 100 µM | UO-31 51.3 µM | UACC-257 67.1 µM | XF498 > 100 µM | M14 16.3 µM | SK-MEL-2 29.9 µM | Malme-3M 64.1 µM | DLD-1 55.3 µM | 786-0 27 µM | SF-268 44.9 µM | OVCAR-4 57.9 µM | SK-MEL-5 48.9 µM | HCT-116 38.2 µM | SF-539 31 µM | A549 45.4 µM | IGROV-1 97.5 µM | RXF 393 36.1 µM | RPMI-8226 43.6 µM | U-251 23.1 µM | HOP-62 72.3 µM | UACC-62 39.5 µM | SK-OV-3 27.2 µM | EKVX 64 µM | HCC 2998 34.8 µM | CAKI-1 64.9 µM | TK-10 > 100 µM | SNB-78 55.5 µM | DMS-273 22.3 µM | LOX IMVI 45.2 µM | KM-20L2 27.4 µM | SNB-19 46.3 µM
